Experimental data: ChEMBL document CHEMBL3351989, “Structure-activity relationship and interaction studies of new SIRT1 inhibitors with the scaffold of 3-(furan-2-yl)-[1,2,4]triazolo[3,4-b][1,3,4]thiadiazole” (Bioorg Med Chem Lett, 2014)

Legend:
[1] = target: T1, NAD-dependent protein deacetylase sirtuin-1 (Homo sapiens, UniProt Q96EB6); experiment: Inhibition of hexa-His-tagged recombinant human SIRT1 expressed in Escherichia coli BL21(DE3) using AMC-labeled Arg-His-Lys-Lys(ac) as substrate assessed as inhibition of deacetylation of peptide after 45 mins by fluorescence assay
T1 sequence (Q96EB6 whole entry): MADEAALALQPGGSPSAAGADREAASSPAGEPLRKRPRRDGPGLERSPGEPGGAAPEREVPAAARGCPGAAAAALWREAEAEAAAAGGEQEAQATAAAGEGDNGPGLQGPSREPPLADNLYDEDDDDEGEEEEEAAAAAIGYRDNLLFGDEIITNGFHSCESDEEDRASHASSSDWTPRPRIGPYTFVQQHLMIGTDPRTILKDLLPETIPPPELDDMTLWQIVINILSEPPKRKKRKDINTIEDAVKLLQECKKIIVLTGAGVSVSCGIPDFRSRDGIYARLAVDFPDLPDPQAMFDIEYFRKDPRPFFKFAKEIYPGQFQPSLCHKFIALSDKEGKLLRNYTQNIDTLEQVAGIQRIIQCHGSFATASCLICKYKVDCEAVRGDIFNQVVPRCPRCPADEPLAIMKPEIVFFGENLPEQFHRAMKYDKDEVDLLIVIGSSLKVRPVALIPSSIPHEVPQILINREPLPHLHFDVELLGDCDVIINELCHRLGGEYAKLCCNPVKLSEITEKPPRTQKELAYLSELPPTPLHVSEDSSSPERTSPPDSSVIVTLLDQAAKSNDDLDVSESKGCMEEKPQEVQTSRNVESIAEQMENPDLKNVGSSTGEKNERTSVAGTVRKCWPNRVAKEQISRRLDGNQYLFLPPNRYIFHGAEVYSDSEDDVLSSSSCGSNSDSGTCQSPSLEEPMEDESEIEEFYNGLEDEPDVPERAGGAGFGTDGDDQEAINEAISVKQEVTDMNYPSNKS

[2] = target: T2, NAD-dependent protein deacetylase sirtuin-1 (Homo sapiens) (UniProt Q96EB6); experiment: Inhibition of SIRT1-mediated deacetylation of p53 in human MCF7 cells at 1.2 to 100 uM after 6 hrs by Western blotting; format: cell-based
T2 sequence (whole entry): T1 sequence (Q96EB6 whole entry)

[3] = target: T1, NAD-dependent protein deacetylase sirtuin-1; experiment: Inhibition of hexa-His-tagged recombinant human SIRT1 expressed in Escherichia coli BL21(DE3) using AMC-labeled Arg-His-Lys-Lys(ac) as substrate assessed as inhibition of deacetylation of peptide after 45 mins by Lineweaver-Burke plot method
[4] = target: T3, NAD-dependent protein deacetylase sirtuin-1 (Homo sapiens, UniProt Q96EB6, I347A); experiment: Inhibition of human SIRT1 I347A mutant expressed in Escherichia coli BL21(DE3) using AMC-labeled Arg-His-Lys-Lys(ac) as substrate assessed as inhibition of deacetylation of peptide after 45 mins by Lineweaver-Burke plot method
[5] = target: T4, NAD-dependent protein deacetylase sirtuin-1 (Homo sapiens, UniProt Q96EB6, F273L); experiment: Inhibition of human SIRT1 F273L mutant expressed in Escherichia coli BL21(DE3) using AMC-labeled Arg-His-Lys-Lys(ac) as substrate assessed as inhibition of deacetylation of peptide after 45 mins by Lineweaver-Burke plot method
[6] = target: T5, NAD-dependent protein deacetylase sirtuin-1 (Homo sapiens, UniProt Q96EB6, F414A); experiment: Inhibition of human SIRT1 F414A mutant expressed in Escherichia coli BL21(DE3) using AMC-labeled Arg-His-Lys-Lys(ac) as substrate assessed as inhibition of deacetylation of peptide after 45 mins by Lineweaver-Burke plot method
[7] = target: T4, NAD-dependent protein deacetylase sirtuin-1; experiment: Inhibition of human SIRT1 F273L mutant expressed in Escherichia coli BL21(DE3) using AMC-labeled Arg-His-Lys-Lys(ac) as substrate assessed as inhibition of deacetylation of peptide after 45 mins by fluorescence assay
[8] = target: T5, NAD-dependent protein deacetylase sirtuin-1; experiment: Inhibition of human SIRT1 F414A mutant expressed in Escherichia coli BL21(DE3) using AMC-labeled Arg-His-Lys-Lys(ac) as substrate assessed as inhibition of deacetylation of peptide after 45 mins by fluorescence assay
[9] = target: T3, NAD-dependent protein deacetylase sirtuin-1; experiment: Inhibition of human SIRT1 I347A mutant expressed in Escherichia coli BL21(DE3) using AMC-labeled Arg-His-Lys-Lys(ac) as substrate assessed as inhibition of deacetylation of peptide after 45 mins by fluorescence assay

T5 sequence (Q96EB6 2-747 F414A limits assumed): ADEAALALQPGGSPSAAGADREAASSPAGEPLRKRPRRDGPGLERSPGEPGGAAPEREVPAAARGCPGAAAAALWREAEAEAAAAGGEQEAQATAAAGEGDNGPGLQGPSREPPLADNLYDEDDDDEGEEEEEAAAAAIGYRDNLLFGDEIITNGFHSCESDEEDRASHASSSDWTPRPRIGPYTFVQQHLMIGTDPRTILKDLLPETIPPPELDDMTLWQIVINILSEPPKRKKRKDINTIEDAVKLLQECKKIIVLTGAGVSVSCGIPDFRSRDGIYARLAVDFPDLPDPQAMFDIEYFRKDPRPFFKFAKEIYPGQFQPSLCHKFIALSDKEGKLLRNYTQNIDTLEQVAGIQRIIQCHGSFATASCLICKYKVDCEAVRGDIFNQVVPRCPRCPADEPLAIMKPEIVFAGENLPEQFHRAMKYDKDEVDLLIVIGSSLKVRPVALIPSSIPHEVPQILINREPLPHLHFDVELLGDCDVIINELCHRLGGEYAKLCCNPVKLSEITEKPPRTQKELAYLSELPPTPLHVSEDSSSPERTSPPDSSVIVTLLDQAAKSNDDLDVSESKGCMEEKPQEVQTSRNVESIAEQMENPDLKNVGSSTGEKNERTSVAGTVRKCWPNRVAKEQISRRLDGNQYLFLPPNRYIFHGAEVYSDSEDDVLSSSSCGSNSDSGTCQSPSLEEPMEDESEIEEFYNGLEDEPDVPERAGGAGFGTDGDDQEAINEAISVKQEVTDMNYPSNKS
T4 sequence (Q96EB6 2-747 F273L limits assumed): as the sequence (Q96EB6 2-747 F414A limits assumed) above, with F272L, A413F counted along it
T3 sequence (Q96EB6 2-747 I347A limits assumed): as the sequence (Q96EB6 2-747 F414A limits assumed) above, with I346A, A413F counted along it

| Compound | IC50 [1] [µM] | also measured |
| --- | --- | --- |
| Cc1ccc(OCc2nn3c(-c4ccco4)nnc3s2)cc1 | 29.3 |  |
| C=CCOc1ccc(-c2nn3c(-c4ccco4)nnc3s2)cc1 | 29.5 |  |
| c1coc(-c2nnc3sc(-c4cccs4)nn23)c1 | 88.6 |  |
| c1coc(-c2nnc3sc(C4COc5ccccc5O4)nn23)c1 (stereo not drawn) | 8.9 | inhibition [2]: Dose-dependent effect |
| COc1ccccc1OCc1nn2c(-c3ccco3)nnc2s1 | 51.2 |  |
| Fc1ccc(-c2ccc(-c3nn4c(-c5ccco5)nnc4s3)o2)cc1 | > 100 |  |
| Cc1cccc(OCc2nn3c(-c4ccco4)nnc3s2)c1 | 75.3 |  |
| COc1ccc(Cc2nn3c(-c4ccco4)nnc3s2)cc1OC | 4.1 | inhibition [2]: Dose-dependent effect |
| Cc1ccc(OCc2nn3c(-c4ccco4)nnc3s2)cc1C | 28.7 |  |
| c1coc(-c2nnc3sc(-c4cnccn4)nn23)c1 | 66.6 |  |
| Cc1ccccc1OCc1nn2c(-c3ccco3)nnc2s1 | 18.7 |  |
| CCC(Oc1ccccc1)c1nn2c(-c3ccco3)nnc2s1 (stereo not drawn) | > 100 |  |
| Cc1ccc(-c2nn3c(-c4ccco4)nnc3s2)cc1 | 27.4 |  |
| C=CCOc1cccc(-c2nn3c(-c4ccco4)nnc3s2)c1 | 18.8 |  |
| CCOc1cccc(-c2nn3c(-c4ccco4)nnc3s2)c1 | 19 |  |
| CCC(c1ccccc1)c1nn2c(-c3ccco3)nnc2s1 (stereo not drawn) | 96.2 |  |
| COc1ccc(-c2nn3c(-c4ccco4)nnc3s2)cc1 | 46.7 |  |
| COc1ccc(OCc2nn3c(-c4ccco4)nnc3s2)cc1 | 41 |  |
| CCOc1ccccc1-c1nn2c(-c3ccco3)nnc2s1 | 23.6 |  |
| c1ccc(-c2nn3c(-c4ccco4)nnc3s2)cc1 | 27.6 |  |
| COc1cccc(OCc2nn3c(-c4ccco4)nnc3s2)c1 | 48.4 |  |
| c1coc(-c2nnc3sc(-c4ccncc4)nn23)c1 | 49.8 |  |

| Compound | IC50 [1] [µM] | also measured |
| --- | --- | --- |
| c1ccc(CCCc2nn3c(-c4ccco4)nnc3s2)cc1 | 12.2 |  |
| c1ccc(OCc2nn3c(-c4ccco4)nnc3s2)cc1 | 61.3 |  |
| CCOc1ccccc1OCc1nn2c(-c3ccco3)nnc2s1 | 13.7 |  |
| c1coc(-c2nnc3sc(Cc4ccc5c(c4)OCCO5)nn23)c1 | 67 |  |
| Cc1cccc(-c2nn3c(-c4ccco4)nnc3s2)c1 | 7.5 |  |
| c1coc(-c2nnc3sc(-c4ccc5c(c4)OCO5)nn23)c1 | 45.2 |  |
| CCOc1ccc(-c2nn3c(-c4ccco4)nnc3s2)cc1 | 31.3 |  |
| COc1cccc(-c2nn3c(-c4ccco4)nnc3s2)c1 | 20.3 |  |
| COc1cc(-c2nn3c(-c4ccco4)nnc3s2)cc(OC)c1OC | 35.6 |  |
| CCOc1cc(-c2nn3c(-c4ccco4)nnc3s2)cc(OCC)c1OCC | 65.7 |  |
| c1ccc(-c2nn3c(-c4ccco4)nnc3s2)nc1 | 3.5 | Ki [3]: 0.6 µM; Ki [4]: 39.1 µM; Ki [5]: 58.9 µM; Ki [6]: 24.1 µM; IC50 [7]: 133 µM; IC50 [8]: 44 µM; IC50 [9]: 87.9 µM; inhibition [2]: Dose-dependent effect |
| COc1ccc(-c2nn3c(-c4ccco4)nnc3s2)cc1OC | 24.8 |  |
| c1ccc(CCc2nn3c(-c4ccco4)nnc3s2)cc1 | 47.4 |  |
| COc1ccc(Cc2nn3c(-c4ccco4)nnc3s2)cc1 | 76.9 |  |
| CC(Oc1ccccc1)c1nn2c(-c3ccco3)nnc2s1 (stereo not drawn) | 67.9 |  |
| c1coc(-c2nnc3sc(-c4ccc5c(c4)OCCO5)nn23)c1 | 40.7 |  |
| c1coc(-c2nnc3sc(-c4cc5ccccc5o4)nn23)c1 | 20.6 |  |
| c1ccc(Cc2nn3c(-c4ccco4)nnc3s2)cc1 | 37.9 |  |
| c1cncc(-c2nn3c(-c4ccco4)nnc3s2)c1 | 78.8 |  |
| Clc1ccc(Cc2nn3c(-c4ccco4)nnc3s2)cc1 | 78 |  |
| c1coc(-c2nn3c(-c4ccco4)nnc3s2)c1 | 22 |  |
